Test results reported in patent US20080293699A1, “Inhibitors of thapsigargin-induced cell death” (priority 2007, published 2008).
Entries after “also recorded” stand apart in the source; their conditions may differ.

Columns and labels:
[1] = system: ASK1 (ser 967, ser 83, thr 845); test: Phosphorylation of ASK1 sites in ASK1-transfected 293T cells (immunoblotting); type: cell-based; conditions: for Phosphorylation of ASK1 at ser 967 / Phosphorylation of ASK1 at ser 83 and thr 845: ASK1-transfected 293T; for Phosphorylation of ASK1 at ser 967: 100 μM compound, two hours; for Phosphorylation of ASK1 at ser 83 and thr 845: up to 100 μM
Procedure: Phosphorylation of ASK1 at various sites was inspected. 293T cells were transfected with pcDNA-ASK1-HA. One day later, cells were incubated with DMSO (0.4%) or 100 μM compound 6239507 (#1) for two hours. Cell extracts were prepared using lysis buffer and were subjected to immunoblotting using anti-phospho ASK1 antibodies or anti HA antibody as indicated (A). The relative density of each phosphorylated ASK band was calculated by imageJ software (B). In (C), compounds from (A) were compared in activity against thapsigargin-induced cell death. […] (D) 293T cells were transfected with pcDNA-ASK1-HA and pEBG-GST-14-3-3. One day later cells were incubated with DMSO (0.4%) or 100 μM of the indicated compound for two hours. Then cells were treated with thapsigargin (20 μM) for the indicated time. Cell extracts were prepared using lysis buffer, and 14-3-3 proteins were immunoprecipitated with […] sepharose beads. ASK1 protein binding with 14-3-3 was visualized by immunoblotting using anti-HA antibody. Anti-phospho ASK1 (ser967) antibody was used to detect phosphorylation of ASK1 at each time point.
Thus, while not directly inhibiting ASK1 kinase activity, these events are predicted to reduce ASK1 in vivo kinase activity. It is possible that compound 5962123 inhibits a protein phosphatase that regulates phosphorylation of Ser967.
(§1) Suppression of thapsigargin-induced phosphorylation of p38MAPK was also measured by a quantitative ELISA-methods, with IC50 for p38MAPK phosphorylation estimated at <5 μM. In contrast, thapsigargin-induced expression of CHOP, expression of ATF4, proteolytic processing of ATF6, phosphorylation of eIF2a (Ser 51), auto-phosphorylation of Ire1a or auto-phosphorylation of ASK1 were not inhibited directly by CID-2878746 at concentrations up to 50 μM tested by in vitro kinase assay using p32-γ-ATP substrate. […] Thapsigargin-induced reductions in phosphorylation of ASK1 at the serine 967 site in ASK1 transfected 293T cells are inhibited by compound 5962123 at concentrations of 50-100 μM, as determined by immunoblotting using anti-phospho-specific (ser 967) antibody, but thapsigargin-induced changes in phosphorylation of ASK1 at ser 83 and thr 845 are not modulated by compound 5962123 at concentrations as high as 100 μM in ASK1-transfected HEK293T cells.
Experiments were also performed to determine whether compound 6239507 enhances phosphorylation of ASK1 at Ser 967 before and after ER stress induction (i.e., thapsigargin treatment). 293T cells were transfected with pcDNA-ASK1-HA. One day later, cells were incubated with DMSO (0.4%) or 100 μM compound 6239507 (#1) for two hours. Then cells were treated with thapsigargin (20 μM) for the indicated times. Cell extracts were prepared by lysis buffer and were subjected to immunoblotting with anti-phospho ASK1 Ser967 antibody or anti HA antibody. The relative density of phosphor ser967 bands were calculated by imageJ software (mean ±SD).
The ser 967 site of ASK1 is known to down-regulate ASK1 activity by phosphorylation (Goldman et al., J. Biol. Chem. 279:10442-10449, 2004) via 14-3-3 binding. […] 293T cells were transfected with pcDNA-ASK1-HA. One day later, cells were incubated with DMSO (0.4%) or 100 μM compound 6239507 (#1) for two hours. Cell extracts were prepared using lysis buffer and were subjected to immunoblotting using anti-phospho ASK1 antibodies or anti HA antibody as indicated. The relative density of each phosphorylated ASK band was calculated by imageJ software. The compounds were compared in activity against thapsigargin-induced cell death. 293T cells were transfected with pcDNA-ASK1-HA and pEBG-GST-14-3-3. One day later cells were incubated with DMSO (0.4%) or 100 μM of the indicated compound for two hours. Then cells were treated with thapsigargin (20 μM) for the indicated time. Cell extracts were prepared using lysis buffer, and 14-3-3 proteins were immunoprecipitated with […] sepharose beads. […]

Ire1 = Ire1 (Homo sapiens, UniProt O75460); test: Ire1 autophosphorylation in vitro kinase assay; type: biochemical; conditions: 32P-γ-ATP, up to 50 μM
Procedure: as §1
C-Jun and p38 MAPK work downstream of the Ire1 pathway (see FIG. 21), we tested whether one of our hit compounds (6239507) inhibits autophosphorylation of any of kinases in this Ire1-ASK1-JNK/p38 MAPK pathway. […] An Ire1 autophosphorylation assay was performed. […] Incorporation values of ^32P-γ-ATP were evaluated by a scintillation counter. […] Incorporation values of ^32P-γ-ATP were evaluated by a scintillation counter. […]

Chain of Ire1 (O75460 19-977, species assumed): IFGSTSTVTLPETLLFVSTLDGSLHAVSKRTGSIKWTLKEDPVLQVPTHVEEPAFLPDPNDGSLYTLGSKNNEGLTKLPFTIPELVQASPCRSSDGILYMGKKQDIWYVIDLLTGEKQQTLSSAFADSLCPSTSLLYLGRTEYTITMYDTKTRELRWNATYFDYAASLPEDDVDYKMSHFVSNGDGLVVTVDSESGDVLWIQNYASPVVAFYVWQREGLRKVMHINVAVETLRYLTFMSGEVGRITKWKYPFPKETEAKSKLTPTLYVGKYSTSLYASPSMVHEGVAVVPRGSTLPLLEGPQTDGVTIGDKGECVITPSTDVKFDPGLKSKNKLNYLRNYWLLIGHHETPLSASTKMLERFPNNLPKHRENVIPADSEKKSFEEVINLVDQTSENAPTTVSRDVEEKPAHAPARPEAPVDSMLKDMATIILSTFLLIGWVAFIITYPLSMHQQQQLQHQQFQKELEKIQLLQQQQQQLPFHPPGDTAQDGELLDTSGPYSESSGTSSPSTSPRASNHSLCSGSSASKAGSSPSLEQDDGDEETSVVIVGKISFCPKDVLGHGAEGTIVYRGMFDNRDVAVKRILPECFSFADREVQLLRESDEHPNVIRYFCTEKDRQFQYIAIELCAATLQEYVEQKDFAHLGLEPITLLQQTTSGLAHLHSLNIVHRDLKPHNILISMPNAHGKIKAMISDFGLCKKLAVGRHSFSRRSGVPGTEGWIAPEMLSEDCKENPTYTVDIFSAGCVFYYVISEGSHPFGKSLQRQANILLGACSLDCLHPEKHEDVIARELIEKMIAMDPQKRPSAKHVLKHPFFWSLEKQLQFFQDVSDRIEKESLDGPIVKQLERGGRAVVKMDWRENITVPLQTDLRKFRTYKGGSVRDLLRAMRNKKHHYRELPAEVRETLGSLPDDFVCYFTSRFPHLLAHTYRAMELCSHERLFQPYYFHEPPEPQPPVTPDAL

Row | Structure (SMILES) | Phosphorylation of ASK1 at ser 967 [1] | Phosphorylation of ASK1 at ser 83 and thr 845 [1] | Thapsigargin-stimulated dephosphorylation of ASK1 at serine 967 ([1]; ASK1-transfected HEK293T, 50 μM, 50-100 μM) | Ire1 auto-phosphorylation (Ire1; listed as CID-2878746) | Phosphorylation of ASK1 at ser 967 ([1]; listed as 1) | Ire1 auto-phosphorylation (Ire1)
1 | COc1ccc(C2CC(=O)C3=C(C2)Nc2ccccc2NC3c2ccccc2C(F)(F)F)cc1OC (stereo not drawn) [Compound 6237735] | enhanced phosphorylation of ser 967 only | not ser 83 or thr 845 |  |  |  | 
2 | CCN(CC)c1ccc(C2Nc3ccccc3NC3=C2C(=O)CC(c2ccccc2)C3)cc1 (stereo not drawn) [Compound 5962123, 6-(4-diethylaminophenyl)-9-phenyl-5,6,8,9,10,11-hexahydrobenzo[c][1,5]benzodiazepin-7-one] |  | not modulated | inhibited | not inhibited |  | 
3 | COc1ccc(C2CC(=O)C3=C(C2)Nc2ccccc2NC3c2cccc(Oc3ccccc3)c2)cc1OC (stereo not drawn) [Compound 6239507] | enhance phosphorylation; also recorded: intensified | not ser 83 or thr 845 |  |  | enhanced phosphorylation of ser 967 only | does not modulate
